Values after ≈ are worked out from the molar mass of the structure shown.
How the values were obtained:
[1] = system: mouse malignant melanoma B16 F0 cells; test: MTT based cell proliferation assay, B16 F0 cells; conditions: Mus musculus, B16F0, 72 h, MTT; for inhibition at 100 µg/mL: at 100 μg/ml; for inhibition at 100 µg/mL / inhibition at 60 µg/mL: three days; for inhibition at 60 µg/mL: at 60 μg/ml
Procedure: (§1) The cytotoxic efficacies of the various selenopheno triazene compounds (compounds 1 to 16) was evaluated in both human malignant melanoma A375 cells and mouse malignant melanoma B16 F0 cells by MTT cell proliferation assay kit (Roche Applied Sciences, Germany). The assay was carried out according to the instruction provided by the vendor. Briefly, equal numbers of cells was plated in 96-well flat-bottomed plates and were incubated with both DTIC and the test compounds (compounds 1 to 16) at various concentrations for a period of three days. […] Finally, the cells were solubilized by adding solubilizing solution and allowed to incubate at 37° C. overnight. After complete solubilization of the formazan crystals, the absorbance was read at 540 nm in a microplate reader (BioRad, USA).

[2] = system: human malignant melanoma A375 cells; test: MTT based cell proliferation assay, A375 cells; conditions: A-375, 72 h, at 10 μg/ml, three days
Procedure: as §1

With `CN(C)/N=N/c1cc(C(N)=O)[se]c1C(N)=O` [Compound 2, 3-[(dimethylamino)diazenyl]selenophene-2,5-dicarboxamide] the melting point was 266 to 268 °C.

In the case of `CN(C)/N=N/c1cc(-c2ccccc2)[se]c1C(N)=O` [Compound 3, 3-[(dimethylamino)diazenyl]-5-phenylselenophene-2-carboxamide], the inhibition at 100 µg/mL [1] is reported as 30%, the melting point is reported as 222 to 224 °C and the inhibition at 10 µg/mL [2] is reported as 14%.

`CN(C)/N=N/c1cc(C(C)(C)C)[se]c1C(N)=O` [Compound 4, 3-[(dimethylamino)diazenyl]-5-(tert-butyl)selenophene-2-carboxamide] gave an inhibition at 60 µg/mL [1] of 34%, a melting point of 218 to 220 °C and an inhibition at 10 µg/mL [2] of 0.5%.

`CN(C)/N=N/c1c(C(N)=O)[se]c2c1CCCC2` [Compound 5, 3-[(dimethylamino)diazenyl]-4,5,6,7-tetrahydrobenzo[1,2-b]selenophene-2-carboxamide] showed an inhibition at 60 µg/mL [1] of 0.41% and a melting point of 198 to 202 °C.

`CN(C)/N=N/c1c(C(N)=O)[se]c2ncccc12` [Compound 6, 3-[(dimethylamino)diazenyl]selenopheno[2,3-b]pyridine-2-carboxamide] showed an inhibition at 60 µg/mL [1] of 4% and a melting point of 230 to 232 °C.

In the case of `CN(C)/N=N/c1cc(-c2ccccc2)[se]c1C(=O)O` [Compound 7, 3-[(dimethylamino)diazenyl]-5-phenylselenophene-2-carboxylic acid], the inhibition at 100 µg/mL [1] is reported as 5% and the melting point is reported as 212 to 214 °C.

With `CN(C)/N=N/c1cc(C(C)(C)C)[se]c1C(=O)O` [Compound 8, 3-[(dimethylamino)diazenyl]-5-(tert-butyl)selenophene-2-carboxylic acid] the IC50 ([1]; three days incubation, read-out: Cell proliferation inhibition in B16F0 cells, IC50) was 43.6 µg/mL (≈ 144 µM), the melting point was 120 to 122 °C and the inhibition at 10 µg/mL [2] was 24%.

With `CN(C)/N=N/c1c(C(=O)O)[se]c2c1CCCC2` [Compound 9, 3-[(dimethylamino)diazenyl]-4,5,6,7-tetrahydrobenzo[1,2-b]selenophene-2-carboxylic acid] the inhibition at 60 µg/mL [1] was 32% and the melting point was 100 to 102 °C.

`CN(C)/N=N/c1c(C(=O)O)[se]c2ncccc12` [Compound 10, 3-[(dimethylamino)diazenyl]selenopheno[2,3-b]pyridine-2-carboxylic acid] showed an inhibition at 60 µg/mL [1] of 12% and a melting point of 172 to 174 °C.

`CN(C)/N=N/c1cc(C(C)(C)C)[se]c1C#N` [Compound 11, 3-[(dimethylamino)diazenyl]-5-(tert-butyl)selenophene-2-carbonitrile] gave an inhibition at 60 µg/mL [1] of 48% and a melting point of 58 to 60 °C.

For `Cn1nnc2cc(-c3ccccc3)[se]c2c1=O` [Compound 12, 3-methyl-6-phenylselenopheno[3,2-d]1,2,3-triazin-4-one], the inhibition at 100 µg/mL [1] was 27% and the melting point was 232 to 234 °C.

Work on `Cn1nnc2cc(C(C)(C)C)[se]c2c1=O` [Compound 13, 6-(tert-butyl)-3-methylselenopheno[3,2-d]1,2,3-triazin-4-one] yielded an inhibition at 60 µg/mL [1] of 33% and a melting point of 98 to 100 °C.

`Cn1nnc2c3c([se]c2c1=O)CCCC3` [Compound 14, 3-methyl-6,7,8,9-tetrahydrobenzo[1,2-b]1,2,3-triazino[4,5-d]selenophen-4-one] gave an inhibition at 60 µg/mL [1] of 17%.

In the case of `Cn1nnc2c([se]c3ncccc32)c1=O` [Compound 15, 3-methyl-1,2,3-triazino[4′,5′-5,4]selenopheno[2,3-b]pyridine-4-one], the melting point is reported as 202 to 204 °C.

`Cn1nnc2c([se]c3ccccc32)c1=O` [Compound 16, 3-methylbenzo[b]1,2,3-triazino[4,5-d]selenophen-4-one] showed an inhibition at 60 µg/mL [1] of 31% and a melting point of 190 to 192 °C.
